From patent publication US6602487B1, “Methods and tests for producing and for inhibiting coronary artery vasospasms” (Dimera Incorporated, priority 1997, dated 2003)
“Also recorded” adds a separate entry of the source.

Key:
coronary arteries [1] = assay: Mechanical injury coronary vasospasm protocol (Protocol 2); assay type: in vivo, rhesus monkeys (Macaca mulatta); conditions: serotonin 67 μmol/liter IC; U46619 67 nmol/liter or 1 nmol/liter; ET1 ≦10 nmol/liter; AII ≦10 μmol/liter
From the text: A separate mechanical injury, Protocol 2, was used in three additional monkeys (one male, two ovx). The injury step of Protocol 2, was deliberate mechanical stretching of the LAD or left main coronary artery with a 5F catheter.
In Protocol 2, steps 1-5 were the same as in Protocol 1. The remaining steps were as follows:
7. IC injection of angiotensin II (sequential doses to 10 μmol/liter);
8. Injury by stretching the coronary artery with a 5F catheter;
9. IC injection of serotonin (sequential doses to 1 mmol/liter);
(§1) 10. IC injection 15 minutes later with 1 or 10 μmol/liter nitrendipine or Ro 40-5967 (mibefradil);
11. IC injection of […] (sequential doses to 10 μmol/liter); and
(§2) 12. IC injection 15 minutes later with 1 or 10 μmol/liter nitrendipine or Ro 40-5967.
Putative coronary vasospasm stimuli were judged primarily by actions on large coronary artery diameters, analyzed as diameter of the most proximal focus of vasospasm at end-diastole from video-taped images recorded at 30 frames/s. We used the image analysis program Image Pro to measure the diameters from single frames acquired with an Imagraph frame grabber in a Pentium computer. We used the 3F catheter tip radio-opaque marker ring (1.0 mm) for calibration and determined minimal and maximal diameters just distal to the constriction. All responses to interventions were also X-ray imaged immediately (15 to 30 s after injection) and at exactly 3 minutes (and 15 minutes if there was vasospasm) after injection.

coronary arteries [2] = test system: coronary arteries
coronary arteries [3] = assay: animal or person; conditions: Macaca mulatta, read-out: EC50 (-log mol/liter) (converted)
coronary arteries [4] = assay: Relief of coronary vasospasm by intracoronary Ca2+ antagonist; assay type: in vivo, rhesus monkeys (Macaca mulatta)
Method: The eighth to tenth steps, which were 1 ml injections of 100 μmol/liter serotonin and 1 μmol/liter U46619 combined, were the critical steps. These concentrations of serotonin and U46619, injected in three repeated challenges, provoked drug-induced vasospasm. Sensitivity was determined by whether the vasospasm response occurred to the first, second or third stimulus, allowing at least a 7-minute delay from one injection to the next. For three of these seven ovx monkeys, 1-2 nM endothelin-1 (alone and plus serotonin) and 1 μmol/liter angiotensin-II (alone and plus serotonin) steps were administered between steps 10 and 11 (as additional challenges), but these extra steps never produced vasospasm. […] Step 12 was a Ca^2+ antagonist, either nitrendipine or mibefradil, as a vasodilator to relieve the vasospasm or cardiogenic shock that was the end point.
as §1, §2
To allow monkeys to recover and prevent death due to cardiogenic shock, we followed combined serotonin and U46619 stimulation with an IC Ca^2+ antagonist, either nitrendipine or mibefradil, at the end of the 15 minute vasospasm, except for that in FIG. 2. […] In monkeys with severe vasoconstriction and low heart rates (<90 beats/minute), Ca^2+ antagonists effected increases to 90 to 200 beats/minute due to reversal of atrioventricular […] conduction blocks (evident in the recovery of heart rate shown in Table 2).

SMILES: NCCc1c[nH]c2ccc(O)cc12 [Serotonin, serotonin]
- coronary vasospasm with mechanical injury (5F catheter stretch) (coronary arteries [1]): caused coronary vasospasm at multiple sites; also recorded: Vasospasm was stimulated
- Spasms/N (coronary arteries [2]; Protocol 1, number of animals with vasospasm / number of animals): 0/8
- ED50 (-log mol/liter) (coronary arteries [2]; Protocol 1, syringe concentration of the named vasoconstrictor causing 50% reduction of diameter from control, combined stimuli with 100 μmol/liter serotonin): 2.5 -log mol/liter
- vasoactivity / constriction of arteries on IC injection of single agent (coronary arteries [2]; serotonin 67 nmol/liter to 667 μmol/liter, U46619 6.7 to 2,000 nmol/liter): vasoactive in all animals
- coronary vasospasm on IC injection (no mechanical injury) (coronary arteries [2]; serotonin 6.7 or 200 μmol/liter alone, U46619 6.7 to 2,000 nmol/liter alone, AII up to 200 nmol/liter, combination 6.7 μmol/liter serotonin and 67 nmol/liter U46619, triple combination with ET1): vasospasm could not be found
- EC50 (coronary arteries [3]): 0.000158 mol/L

SMILES: COCC(=O)O[C@]1(CCN(C)CCCc2nc3ccccc3[nH]2)CCc2cc(F)ccc2[C@@H]1C(C)C [mibefradil]
- relief of coronary vasospasm (coronary arteries [4]; IC injection, nitrendipine 1 to 10 μmol/liter, mibefradil 0.1 to 10 μmol/liter, not allowing for dilution): immediately effective in relieving vasospasm
- blood pressures returned to normal ranges (minimums, systolic/diastolic) (coronary arteries [4]; Mibefradil IC 0.1 to 10 μmol/liter, from diastolic levels as low as 10 to 20 mm Hg): 100/60
- blood pressure after IC mibefradil (coronary arteries [4]; one MPA monkey of Example 2, nadir 38/20 mm Hg, after 15 minutes vasospasm): 124/84
